In US11292791B2 (priority 2017, dated 2022):

target: BRD4 (Homo sapiens (Human), UniProt O60885); conditions: read-out: BRD4 IC50 (μM gmean)

Row | SMILES | IC50 [µM]
1 | COC(=O)N1c2ccc3c(nc(Cc4cccc(F)c4OC)n3[C@H]3CC[C@H](C(=O)O)CC3)c2CC[C@@H]1C [Example 661] | 1 to 1000
2 | COC(=O)N1c2ccc3c(nc(Cc4ccc(Cl)cn4)n3[C@@H]3CCC[C@@H](C(=O)O)C3)c2CC[C@@H]1C [Example 663] | 1 to 1000
3 | COC(=O)N1c2ccc3c(nc(Cc4ccc(N5CCCC5=O)cc4)n3[C@H]3CC[C@H](C(=O)O)CC3)c2CC[C@@H]1C [Example 664] | 1 to 1000
4 | COC(=O)N1c2ccc3c(nc(Cc4cncc(C5CC5)n4)n3[C@@H]3CCC[C@@H](C(=O)O)C3)c2CC[C@@H]1C [Example 665] | 1 to 1000
5 | COC(=O)N1c2ccc3c(nc(C(CO)c4ccccc4)n3C3CCCC(C(=O)O)C3)c2CC[C@@H]1C (stereo partly shown) [Example 668] | 1 to 1000
6 | COC(=O)N1c2ccc3c(nc(Cc4cnc(Cl)cn4)n3[C@@H]3CCC[C@@H](C(=O)O)C3)c2CC[C@@H]1C [Example 669] | 1 to 1000
7 | COC(=O)N1c2ccc3c(nc(C(C)Cc4cnn(C)c4)n3C3CCC(C(=O)O)CC3)c2CC[C@@H]1C (stereo partly shown) [Example 671] | 1 to 1000
8 | COC(=O)N1c2ccc3c(nc(C(c4ccc(OC)c(F)c4)C(C)C)n3C3CCC(C(=O)O)CC3)c2CC[C@@H]1C (stereo partly shown) [Example 673] | 1 to 1000
9 | COC(=O)N1c2ccc3c(nc(Cc4ccc(F)cc4)n3[C@@H]3CCC[C@@H](C(=O)O)C3)c2CC[C@@H]1C [Example 675] | 1 to 1000
10 | COC(=O)N1c2ccc3c(nc(CC(C(=O)O)c4cccc(C(F)F)c4)n3C3CCCOC3)c2CC[C@@H]1C (stereo partly shown) [Example 676] | 1 to 1000
11 | COC(=O)N1c2ccc3c(nc(CC(C(=O)O)c4ccccc4)n3-c3ccc(C#N)cc3)c2CC[C@@H]1C (stereo partly shown) [Example 680] | 1 to 1000
12 | COC(=O)N1c2ccc3c(nc(N(C)c4ccc(C#N)cc4)n3[C@@H]3CCC[C@@H](C(=O)O)C3)c2CC[C@@H]1C [Example 681] | 1 to 1000
13 | COC(=O)N1c2ccc3c(nc(Cc4cc(C(F)(F)F)cnn4)n3[C@@H]3CCC[C@@H](C(=O)O)C3)c2CC[C@@H]1C [Example 687] | 1 to 1000
14 | COC(=O)N1c2ccc3c(nc(CN4CCC5(CC5)CC4=O)n3[C@@H]3CCC[C@@H](C(=O)O)C3)c2CC[C@@H]1C [Example 688] | 1 to 1000
15 | COC(=O)N1c2ccc3c(nc(N(C)c4ccc(Cl)cc4)n3[C@H]3CC[C@H](C(=O)O)CC3)c2CC[C@@H]1C [Example 691] | 1 to 1000
16 | COC(=O)N1c2ccc3c(nc(COC4CCCCC4)n3[C@H]3CC[C@H](C(=O)O)CC3)c2CC[C@@H]1C [Example 692] | 1 to 1000
17 | COC(=O)N1c2ccc3c(nc(Cc4cccc(OC5CC5)n4)n3[C@@H]3CCC[C@@H](C(=O)O)C3)c2CC[C@@H]1C [Example 695] | 1 to 1000
18 | COC(=O)N1c2ccc3c(nc(CN4CCC(C)(C)CC4=O)n3[C@@H]3CCC[C@@H](C(=O)O)C3)c2CC[C@@H]1C [Example 696] | 1 to 1000
19 | COC(=O)N1c2ccc3c(nc(CC(C(=O)O)c4ccccc4)n3-c3cccc(C#N)c3)c2CC[C@@H]1C (stereo partly shown) [Example 698] | 1 to 1000
20 | COC(=O)N1c2ccc3c(nc(C(O)C4CCC(F)(F)CC4)n3C3CCCC(C(=O)O)C3)c2CC[C@@H]1C (stereo partly shown) [Example 699] | 1 to 1000
21 | COC(=O)N1c2ccc3c(nc(CC(C(=O)O)c4ccc(C)cc4)n3C3COCC(F)(F)C3)c2CC[C@@H]1C (stereo partly shown) [Example 700] | 1 to 1000
22 | COC(=O)N1c2ccc3c(nc(COC4CCCCC4)n3[C@@H]3CCC[C@@H](C(=O)O)C3)c2CC[C@@H]1C [Example 702] | 1 to 1000
23 | COC(=O)N1c2ccc3c(nc(C4(c5cncc(C)n5)CC4)n3[C@@H]3CCC[C@@H](C(=O)O)C3)c2CC[C@@H]1C [Example 704] | 1 to 1000

Row | SMILES | IC50 [µM]
24 | COC(=O)N1c2ccc3c(nc(Cc4ccccc4C#N)n3[C@H]3CC[C@H](C(=O)O)CC3)c2CC[C@@H]1C [Example 706] | 1 to 1000
25 | COC(=O)N1c2ccc3c(nc(Cc4cccc(C#N)c4)n3[C@H]3CC[C@H](C(=O)O)CC3)c2CC[C@@H]1C [Example 707] | 1 to 1000
26 | COC(=O)N1c2ccc3c(nc(C(O)c4ccccc4)n3C3CCC(C(=O)O)CC3)c2CC[C@@H]1C (stereo partly shown) [Example 708] | 1 to 1000
27 | COC(=O)N1c2ccc3c(nc(C(C)Cn4cc(Cl)cn4)n3C3CCS(=O)(=O)C3)c2CC[C@@H]1C (stereo partly shown) [Example 709] | 1 to 1000
28 | COC(=O)N1c2ccc3c(nc(C4(Cn5cccn5)CC4)n3[C@H]3CC[C@H](C(=O)O)CC3)c2CC[C@@H]1C [Example 710] | 1 to 1000
29 | COC(=O)N1c2ccc3c(nc(COC4CCCC4)n3[C@@H]3CCC[C@@H](C(=O)O)C3)c2CC[C@@H]1C [Example 711] | 1 to 1000
30 | COC(=O)N1c2ccc3c(nc(C(O)CC4CCC(F)(F)CC4)n3C3CCCC(C(=O)O)C3)c2CC[C@@H]1C (stereo partly shown) [Example 712] | 1 to 1000
31 | COC(=O)N1c2ccc3c(nc(Cn4cc(C(C)C)cn4)n3[C@H]3CC[C@H](C(=O)O)CC3)c2CC[C@@H]1C [Example 714] | 1 to 1000
32 | COC(=O)N1c2ccc3c(nc(C(NC(C)=O)c4ccccc4)n3C3CCC(C(=O)O)CC3)c2CC[C@@H]1C (stereo partly shown) [Example 717] | 1 to 1000
33 | COC(=O)N1c2ccc3c(nc(Cc4cccc(C)c4)n3[C@@H]3CCC[C@@H](C(=O)O)C3)c2CC[C@@H]1C [Example 718] | 1 to 1000
34 | COC(=O)N1c2ccc3c(nc(C(C)Cc4ccc(F)c(F)c4)n3C3CCCC(C(=O)O)C3)c2CC[C@@H]1C (stereo partly shown) [Example 720] | 1 to 1000
35 | COC(=O)N1c2ccc3c(nc(C[C@H]4CC[C@H](OC)CC4)n3[C@@H]3CCC[C@@H](C(=O)O)C3)c2CC[C@@H]1C [Example 723] | 1 to 1000
36 | COC(=O)N1c2ccc3c(nc(C(C)OC4CCOCC4)n3C3CCC(C(=O)O)CC3)c2CC[C@@H]1C (stereo partly shown) [Example 724] | 1 to 1000
37 | COC(=O)N1c2ccc3c(nc(C(c4ccccc4)[S+](C)[O-])n3C3CCC(C(=O)O)CC3)c2CC[C@@H]1C (stereo partly shown) [Example 725] | 1 to 1000
38 | COC(=O)N1c2ccc3c(nc(CC4CCC(C#N)CC4)n3C3CCCC(C(=O)O)C3)c2CC[C@@H]1C (stereo partly shown) [Example 726] | 1 to 1000
39 | COC(=O)N1c2ccc3c(nc(CC(C(=O)O)c4cccc(F)c4)n3C3CCCOC3)c2CC[C@@H]1C (stereo partly shown) [Example 728] | 1 to 1000
40 | COC(=O)N1c2ccc3c(nc(CC4CCC(OC)CC4)n3C3CCC(C(=O)O)CC3)c2CC[C@@H]1C (stereo partly shown) [Example 729] | 1 to 1000
41 | COC(=O)N1c2ccc3c(nc(C(C)C(=O)N4CCCC4)n3C3CCCC(C(=O)O)C3)c2CC[C@@H]1C (stereo partly shown) [Example 732] | 1 to 1000
42 | COC(=O)N1c2ccc3c(nc(Cn4cc(C5CC5)cn4)n3[C@H]3CC[C@H](C(=O)O)CC3)c2CC[C@@H]1C [Example 733] | 1 to 1000
43 | COC(=O)N1c2ccc3c(nc(Cn4cc(Cl)cn4)n3[C@H]3CC[C@H](C(=O)O)CC3)c2CC[C@@H]1C [Example 737] | 1 to 1000
44 | COC(=O)N1c2ccc3c(nc(Cc4cnc(C)cn4)n3[C@@H]3CCC[C@@H](C(=O)O)C3)c2CC[C@@H]1C [Example 738] | 1 to 1000
45 | COC(=O)N1c2ccc3c(nc(Cc4ccc(OC)c(OC)c4)n3[C@H]3CC[C@H](C(=O)O)CC3)c2CC[C@@H]1C [Example 740] | 1 to 1000
46 | COC(=O)N1c2ccc3c(nc(COC4CCOCC4)n3[C@@H]3CCC[C@@H](C(=O)O)C3)c2CC[C@@H]1C [Example 741] | 1 to 1000

Row | SMILES | IC50 [µM]
47 | COC(=O)N1c2ccc3c(nc(C(C)Cc4cnn(C)c4)n3C3CCCC(C(=O)O)C3)c2CC[C@@H]1C (stereo partly shown) [Example 742] | 1 to 1000
48 | COC(=O)N1c2ccc3c(nc(CCc4ccccc4C(=O)O)n3C3CCOCC3)c2CC[C@@H]1C [Example 743] | 1 to 1000
49 | COC(=O)N1c2ccc3c(nc(Cc4ccc(C#N)cc4)n3[C@H]3CC[C@H](C(=O)O)CC3)c2CC[C@@H]1C [Example 744] | 1 to 1000
50 | COC(=O)N1c2ccc3c(nc(Cc4cnc(Cl)c(C)n4)n3[C@@H]3CCC[C@@H](C(=O)O)C3)c2CC[C@@H]1C [Example 745] | 1 to 1000
51 | COC(=O)N1c2ccc3c(nc(C(C)(O)c4ccccn4)n3C3CCCC(C(=O)O)C3)c2CC[C@@H]1C (stereo partly shown) [Example 749] | 1 to 1000
52 | COC(=O)N1c2ccc3c(nc(CC(C(=O)O)c4ccc(F)c(F)c4)n3C3CCCC3)c2CC[C@@H]1C (stereo partly shown) [Example 751] | 1 to 1000
53 | COC(=O)N1c2ccc3c(nc(COC4CCCC4)n3[C@H]3CC[C@H](C(=O)O)CC3)c2CC[C@@H]1C [Example 752] | 1 to 1000
54 | COC(=O)N1c2ccc3c(nc(C4(Cn5cccn5)CC4)n3[C@@H]3CCC[C@@H](C(=O)O)C3)c2CC[C@@H]1C [Example 753] | 1 to 1000
55 | COC(=O)N1c2ccc3c(nc(C(C)Cn4cccn4)n3C3CCS(=O)(=O)CC3)c2CC[C@@H]1C (stereo partly shown) [Example 754] | 1 to 1000
56 | COC(=O)N1c2ccc3c(nc(CC(C(=O)O)c4ccc(C(C)C)cc4)n3C3CCCOC3)c2CC[C@@H]1C (stereo partly shown) [Example 756] | 1 to 1000
57 | COC(=O)N1c2ccc3c(nc(CC(C(=O)O)c4ccccc4)n3C3CCCC(OC)C3)c2CC[C@@H]1C (stereo partly shown) [Example 757] | 1 to 1000
58 | COC(=O)N1c2ccc3c(nc(CN4CCc5ccccc5C4=O)n3[C@@H]3CCC[C@@H](C(=O)O)C3)c2CC[C@@H]1C [Example 758] | 1 to 1000
59 | COC(=O)N1c2ccc3c(nc(COC4CCOCC4)n3[C@H]3CC[C@H](C(=O)O)CC3)c2CC[C@@H]1C [Example 759] | 1 to 1000
60 | COC(=O)N1c2ccc3c(nc(C(O)C4CCCC4)n3C3CCCC(C(=O)O)C3)c2CC[C@@H]1C (stereo partly shown) [Example 762] | 1 to 1000
61 | COC(=O)N1c2ccc3c(nc(N(C)c4ccc(C#N)cc4)n3[C@H]3CC[C@H](C(=O)O)CC3)c2CC[C@@H]1C [Example 769] | 1 to 1000
62 | COC(=O)N1c2ccc3c(nc(C(C)Cn4cccn4)n3C3CCS(=O)(=O)C3)c2CC[C@@H]1C (stereo partly shown) [Example 771] | 1 to 1000
63 | COC(=O)N1c2ccc3c(nc(C(C)Cn4cccn4)n3C3CCS(=O)(=O)C3)c2CC[C@@H]1C (stereo partly shown) [Example 772] | 1 to 1000
64 | COC(=O)N1c2ccc3c(nc(CC(C(=O)O)c4ccc(F)cc4)n3C3CCCOC3)c2CC[C@@H]1C (stereo partly shown) [Example 773] | 1 to 1000
65 | COC(=O)N1c2ccc3c(nc(Cc4cncc(OC(C)C)c4)n3[C@@H]3CCC[C@@H](C(=O)O)C3)c2CC[C@@H]1C [Example 775] | 1 to 1000
66 | COC(=O)N1c2ccc3c(nc(Cc4ccc(C(F)(F)F)nn4)n3[C@@H]3CCC[C@@H](C(=O)O)C3)c2CC[C@@H]1C [Example 777] | 1 to 1000
67 | COC(=O)N1c2ccc3c(nc(Cc4ccccc4C(=O)O)n3C3CCOCC3)c2CC[C@@H]1C [Example 778] | 1 to 1000
